Results reported in ChEMBL document CHEMBL1128372, “Design and syntheses of potent and selective dipeptide inhibitors of Candida albicans myristoyl-CoA:protein N-myristoyltransferase” (J Med Chem, 1995).
Where a SMILES comes first, the peptide text is derived from it. [ ]: non-standard residue; d: D form. Aun = NCCCCCCCCCCC(=O)O

Key:
[1] = target: T1, Peptide N-myristoyltransferase (Homo sapiens, UniProt P30419+O60551); assay: Inhibitory activity against human N-Myristoyltransferase (NMT).; format: protein assay
T1 sequence (P30419 whole entry): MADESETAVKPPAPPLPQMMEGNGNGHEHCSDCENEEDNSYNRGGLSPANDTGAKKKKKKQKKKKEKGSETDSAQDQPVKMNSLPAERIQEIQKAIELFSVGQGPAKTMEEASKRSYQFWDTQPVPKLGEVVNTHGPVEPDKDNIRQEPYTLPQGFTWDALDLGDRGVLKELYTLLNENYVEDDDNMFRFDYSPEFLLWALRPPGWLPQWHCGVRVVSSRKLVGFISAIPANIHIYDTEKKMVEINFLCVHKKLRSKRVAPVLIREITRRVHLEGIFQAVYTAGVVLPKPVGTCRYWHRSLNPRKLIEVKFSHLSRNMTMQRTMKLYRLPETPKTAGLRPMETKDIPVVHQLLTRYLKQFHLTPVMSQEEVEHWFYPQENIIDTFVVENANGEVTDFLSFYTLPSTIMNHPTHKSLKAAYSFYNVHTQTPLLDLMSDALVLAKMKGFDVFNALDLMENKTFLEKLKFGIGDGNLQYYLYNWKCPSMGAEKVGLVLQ
T1 sequence (O60551 whole entry): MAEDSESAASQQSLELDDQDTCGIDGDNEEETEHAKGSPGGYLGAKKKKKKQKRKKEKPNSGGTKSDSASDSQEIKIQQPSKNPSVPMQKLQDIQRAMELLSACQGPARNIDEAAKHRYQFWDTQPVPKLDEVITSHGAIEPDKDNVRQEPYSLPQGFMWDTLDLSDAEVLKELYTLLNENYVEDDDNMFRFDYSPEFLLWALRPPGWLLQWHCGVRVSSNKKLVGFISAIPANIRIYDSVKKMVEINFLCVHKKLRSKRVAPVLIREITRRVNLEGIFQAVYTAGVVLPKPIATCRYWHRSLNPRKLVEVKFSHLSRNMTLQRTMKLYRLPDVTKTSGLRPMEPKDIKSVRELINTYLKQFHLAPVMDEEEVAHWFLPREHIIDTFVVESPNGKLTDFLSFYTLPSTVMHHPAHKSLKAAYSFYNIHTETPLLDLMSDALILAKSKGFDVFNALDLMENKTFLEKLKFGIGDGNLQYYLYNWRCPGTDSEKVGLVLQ

[2] = Selectivity is the ratio of the IC50 against human NMT to the IC50 against Candida albicans NMT.; format: functional
[3] = target: T1, Peptide N-myristoyltransferase; assay: Apparent binding affinity against Human NMT.; format: protein assay
[4] = target: Peptide N-myristoyltransferase (Candida albicans)
[5] = target: Peptide N-myristoyltransferase (Candida albicans); remark: listed apart in the source

Compound	IC50 [1]	Ki [3]	IC50 [4]	Ki [5]	Selectivity [2]
CC(C)C[C@H](NC(=O)[C@H](CCCCN)NC(=O)[C@H](CO)NC(=O)CCCCCCCCCCN)C(N)=O (H-[Aun]SKL-NH2)	0.23 µM		1.2 µM		0.2
NCCCC[C@H](NC(=O)[C@H](CO)NC(=O)Cc1ccc(CCCCn2ccnc2)cc1)C(=O)NCCC1CCCCC1	16 µM		0.42 µM	0.59 µM	38

Now from value to compound, other results behind:

IC50 [1]	Ki [3]	IC50 [4]	Ki [5]	Compound	Selectivity [2]
11.4 µM	4.2 µM	1.6 µM	0.76 µM	NCCCC[C@H](NC(=O)[C@H](CO)NC(=O)CCCCCCCCCCn1ccnc1)C(=O)NCCC1CCCCC1	7.1
1.14 µM		0.3 µM	0.13 µM	NCCCCCCCCCCC(=O)N[C@@H](CO)C(=O)N[C@@H](CCCCN)C(=O)NCCC1CCCCCCC1	3.8
0.42 µM		0.78 µM		CC(C)CCNC(=O)[C@H](CCCCN)NC(=O)[C@H](CO)NC(=O)CCCCCCCCCCN	0.5
